Tests used:
Cytotoxicity testing [1] = assay type: cell-based; conditions: human, LU lung cancer cells
Cytotoxicity testing [2] = assay type: cell-based; conditions: human, MCF7 breast cells
Human QR2 = target: T1, Human QR2 (Homo sapiens, UniProt P16083); test: QR2 inhibition assay; assay type: biochemical; conditions: for Increase in QR2 inhibitory potency relative to compound 1: relative to natural product 1
T1 sequence (P16083 1-231): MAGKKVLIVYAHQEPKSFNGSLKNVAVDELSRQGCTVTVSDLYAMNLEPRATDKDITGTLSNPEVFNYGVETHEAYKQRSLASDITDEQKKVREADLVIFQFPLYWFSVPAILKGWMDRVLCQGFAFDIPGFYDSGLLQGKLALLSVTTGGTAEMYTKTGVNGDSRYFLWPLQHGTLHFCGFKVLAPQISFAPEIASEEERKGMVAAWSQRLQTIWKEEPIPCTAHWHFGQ

aromatase (CYP19A1) = target: T2, aromatase (CYP19A1) (Homo sapiens, UniProt P11511); test: Aromatase inhibition assay; assay type: biochemical
T2 sequence (P11511 1-503): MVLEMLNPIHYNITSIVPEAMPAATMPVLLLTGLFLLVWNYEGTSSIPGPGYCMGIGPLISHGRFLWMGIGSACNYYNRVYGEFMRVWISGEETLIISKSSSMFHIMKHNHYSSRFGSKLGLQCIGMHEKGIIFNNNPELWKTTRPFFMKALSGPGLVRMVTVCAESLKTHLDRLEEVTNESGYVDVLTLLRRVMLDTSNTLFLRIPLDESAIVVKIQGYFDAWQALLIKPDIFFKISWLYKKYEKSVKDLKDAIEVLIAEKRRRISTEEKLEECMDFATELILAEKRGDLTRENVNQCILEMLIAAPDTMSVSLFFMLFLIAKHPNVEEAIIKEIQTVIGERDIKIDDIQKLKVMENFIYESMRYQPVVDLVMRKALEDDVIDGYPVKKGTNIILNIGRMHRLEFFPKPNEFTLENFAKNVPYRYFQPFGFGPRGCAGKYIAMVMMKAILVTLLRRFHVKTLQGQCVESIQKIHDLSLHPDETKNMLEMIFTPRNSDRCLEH

[3] = test system: four different cell lines; test: Cytotoxicity, overall statement for four cell lines; assay type: cell-based
[4] = test system: mouse mammary gland organ culture (MMOC); conditions: cited from earlier work
[5] = test system: Salmonella typhimurium strain TM677; conditions: S. typhimurium TM677; cited from earlier work

Compound `Cc1cc(=O)[nH]c2c3c(ccc12)OCO3` [1a, 6-Methyl-[1,3]dioxolo[4,5-h]quinolin-8(9H)-one] has an IC50 at 72 h (Cytotoxicity testing [1]) of over 98.5 µM and an IC50 at 72 h (Cytotoxicity testing [2]) of over 98.5 µM.

For `Cc1cc(=O)n(C)c2c3c(ccc12)OCO3` [1b, 6,9-Dimethyl-[1,3]dioxolo[4,5-h]quinolin-8(9H)-one], the “Increase in QR2 inhibitory potency relative to compound 1” value (Human QR2) was “more than 8 fold”, the IC50 at 72 h (Cytotoxicity testing [1]) was over 92.1 µM and the IC50 at 72 h (Cytotoxicity testing [2]) was over 92.1 µM.

With `Cc1cc(=O)[nH]c2ccccc12` [1c, 4-Methylquinolin-2(1H)-one] the “QR2 inhibitory activity (in words)” value (Human QR2) was “inactive”, the IC50 at 72 h (Cytotoxicity testing [1]) was over 126 µM and the “Aromatase inhibitory activity (in words)” value (aromatase (CYP19A1)) was “inactive”. The IC50 at 72 h (Cytotoxicity testing [2]) was over 126 µM.

For `Cc1cc(=O)n(C)c2ccccc12` [1d, 1,4-Dimethylquinolin-2(1H)-one], the “Increase in QR2 inhibitory potency relative to compound 1” value (Human QR2) was “approximately 3 fold”, the IC50 at 72 h (Cytotoxicity testing [1]) was over 116 µM and the “Aromatase inhibitory activity (in words)” value (aromatase (CYP19A1)) was “inactive”. The IC50 at 72 h (Cytotoxicity testing [2]) was over 116 µM.

For `COc1cccc2c(C)cc(=O)[nH]c12` [1e, 8-Methoxy-4-methylquinolin-2(1H)-one], the IC50 at 72 h (Cytotoxicity testing [1]) was over 106 µM, the “Aromatase inhibitory activity (in words)” value (aromatase (CYP19A1)) was “not active” and the IC50 at 72 h (Cytotoxicity testing [2]) was over 106 µM.

For `COc1cccc2c(C)cc(=O)n(C)c12` [1f, 8-Methoxy-1,4-dimethylquinolin-2(1H)-one], the “Increase in QR2 inhibitory potency relative to compound 1” value (Human QR2) was “approximately 10 fold”, the IC50 at 72 h (Cytotoxicity testing [1]) was over 98.5 µM and the IC50 at 72 h (Cytotoxicity testing [2]) was over 98.5 µM.

`COc1ccc2c(C)cc(=O)[nH]c2c1OC` [1g, 7,8-Dimethoxy-4-methylquinolin-2(1H)-one] gave an IC50 at 72 h (Cytotoxicity testing [1]) of over 91.3 µM and an IC50 at 72 h (Cytotoxicity testing [2]) of over 91.3 µM.

Work on `COc1ccc2c(C)cc(=O)n(C)c2c1OC` [1h, 7,8-Dimethoxy-1,4-dimethylquinolin-2(1H)-one] yielded an IC50 at 72 h (Cytotoxicity testing [1]) of over 85.8 µM and an IC50 at 72 h (Cytotoxicity testing [2]) of over 85.8 µM.

With `COc1cc(OC)c2[nH]c(=O)cc(C)c2c1` [1i, 6,8-Dimethoxy-4-methylquinolin-2(1H)-one] the IC50 at 72 h (Cytotoxicity testing [1]) was over 91.3 µM, the “Aromatase inhibitory activity (in words)” value (aromatase (CYP19A1)) was “inactive” and the IC50 at 72 h (Cytotoxicity testing [2]) was over 91.3 µM.

For `COc1cc(OC)c2c(c1)c(C)cc(=O)n2C` [1j, 6,8-Dimethoxy-1,4-dimethylquinolin-2(1H)-one], the IC50 at 72 h (Cytotoxicity testing [1]) was over 85.8 µM, the “Aromatase inhibitory activity (in words)” value (aromatase (CYP19A1)) was “submicromolar range” and the IC50 at 72 h (Cytotoxicity testing [2]) was over 85.8 µM.

`COc1ccc(OC)c2c(C)cc(=O)[nH]c12` [1k, 5,8-Dimethoxy-4-methylquinolin-2(1H)-one] showed an IC50 at 72 h (Cytotoxicity testing [1]) of over 91.2 µM and an IC50 at 72 h (Cytotoxicity testing [2]) of over 91.2 µM.

In the case of `COc1ccc(OC)c2c1c(C)cc(=O)n2C` [1l, 5,8-Dimethoxy-1,4-dimethylquinolin-2(1H)-one], the “Increase in QR2 inhibitory potency relative to compound 1” value (Human QR2) is reported as 10 fold, the IC50 at 72 h (Cytotoxicity testing [1]) is reported as over 85.7 µM and the “Aromatase inhibitory activity (in words)” value (aromatase (CYP19A1)) is reported as “submicromolar range”. It also gave an IC50 at 72 h (Cytotoxicity testing [2]) of over 85.7 µM.

For `COc1cc2c(C)cc(=O)[nH]c2c(OC)c1OC` [1m, 6,7,8-Trimethoxy-4-methylquinolin-2(1H)-one], the IC50 at 72 h (Cytotoxicity testing [1]) was over 80.3 µM and the IC50 at 72 h (Cytotoxicity testing [2]) was over 80.3 µM.

Work on `COc1cc2c(C)cc(=O)n(C)c2c(OC)c1OC` [1n, 6,7,8-Trimethoxy-1,4-dimethylquinolin-2(1H)-one] yielded an IC50 at 72 h (Cytotoxicity testing [1]) of over 76 µM and an IC50 at 72 h (Cytotoxicity testing [2]) of over 76 µM.

With `COc1cc(OC)c2[nH]c(=O)cc(C)c2c1OC` [1o, 5,6,8-Trimethoxy-4-methylquinolin-2(1H)-one] the “Cytotoxicity (in words)” value [3] was “low degree of cytotoxicity”.

For `COc1cc(OC)c2c(c(C)cc(=O)n2C)c1OC` [1p, 5,6,8-Trimethoxy-1,4-dimethylquinolin-2(1H)-one], the “Cytotoxicity (in words)” value [3] was “low degree of cytotoxicity” and the IC50 at 72 h (Cytotoxicity testing [2]) was over 76 µM.

With `COc1c(OC)c(OC)c2c(C)cc(=O)[nH]c2c1OC` [1q, 5,6,7,8-Tetramethoxy-4-methylquinolin-2(1H)-one] the “QR2 inhibitory activity (in words)” value (Human QR2) was “completely inactive”, the IC50 at 72 h (Cytotoxicity testing [1]) was over 71.7 µM and the IC50 at 72 h (Cytotoxicity testing [2]) was over 71.7 µM.

With `COc1c(OC)c(OC)c2c(c(C)cc(=O)n2C)c1OC` [1r, 5,6,7,8-Tetramethoxy-1,4-dimethylquinolin-2(1H)-one] the “QR2 inhibitory activity (in words)” value (Human QR2) was “completely inactive”, the IC50 at 72 h (Cytotoxicity testing [1]) was over 68.2 µM and the “Aromatase inhibitory activity (in words)” value (aromatase (CYP19A1)) was “submicromolar range”. It also gave an IC50 at 72 h (Cytotoxicity testing [2]) of over 68.2 µM.

In the case of `COc1cc(=O)n(C)c2c3c(ccc12)OCO3` [compound 1, 6-Methoxy-9-methyl-[1,3]dioxolo[4,5-h]quinolin-8(9H)-one], the IC50 at 72 h (Cytotoxicity testing [1]) is given as over 85.8 µM, the “Inhibition of formation of DMBA-induced preneoplastic lesions” value [4] is given as “inhibition of the formation of DMBA-induced preneoplastic lesions” and the “Inhibition of mutagenicity induced by 7,12-dimethylbenz[a]anthracene (DMBA)” value [5] is given as “inhibit mutagenicity”. It also gave an IC50 at 72 h (Cytotoxicity testing [2]) of over 85.8 µM.

In the case of `Cc1cc(=O)n(C)c2c1C(=O)C=CC2=O` [compound 12], the “Cytotoxicity (in words)” value [3] is reported as “low degree of cytotoxicity”.

— article PMC2673050 (Journal of medicinal chemistry, 2009)
